# Data taken from article PMC8844822, “SARM1 is a multi-functional NAD(P)ase with prominent base exchange activity, all regulated bymultiple physiologically relevant NAD metabolites” (iScience, 2022).
# Legend:
# [1] = target: T1, Aplysia californica ADP ribosyl cyclase (Aplysia californica, UniProt P29241); conditions: for use as substrate (consumption rate): dinucleotide 250 μM, 25°C, 2–6 h; for effect of metal ion on activity: metal ions 1 mM
# T1 sequence (P29241 25-282): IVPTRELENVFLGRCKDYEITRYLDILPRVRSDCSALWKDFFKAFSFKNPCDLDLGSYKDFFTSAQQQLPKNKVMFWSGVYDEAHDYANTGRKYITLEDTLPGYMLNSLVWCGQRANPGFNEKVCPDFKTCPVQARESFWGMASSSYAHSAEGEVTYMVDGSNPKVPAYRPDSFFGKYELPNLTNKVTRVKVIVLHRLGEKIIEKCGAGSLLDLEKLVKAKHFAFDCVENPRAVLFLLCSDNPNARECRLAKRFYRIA
# Experimental: (§1) hSARM1 species were routinely assayed by the NAD/NADH-Glo^TM Assay (Promega) while both Aplysia cyclase and CD38 were assayed by fluorometry using ϵNAD ([Orsomando et al., 2000]). […] Other reagents used in addition to, or in place of those above are detailed in text or in figure legends, for example metal ions, free bases, dinucleotide analogues, mononucleotides, and ribosides. Assays were all carried out at 25°C except for temperature studies. Reactions were stopped by HClO4/K2CO3 and analysed by C18-HPLC as reported ([Mori et al., 2014]). Only the acid labile NADH and NADPH were treated with 1 N NaOH and neutralized using 1:1 vol of 1.73 M KH2CO3 while the highly hydrophobic metabolites vacor, VAD, VMN and VR, were analysed by a modified C18-HPLC method ([Buonvicino et al., 2018]). Reaction products were quantified from peak areas (see Figure 2A) based on coelution with standards (except for cyclic products from NAD analogues that were not available and were attributed based on UV-spectra and retention times as predicted). Rates were calculated as follows. Hydrolysis and cyclization were measured from product generation from the respective individual dinucleotide substrate used, e.g., free and cyclic ADP-ribosyl moieties from NAD (Figure 1B). A basal value for hydrolysis/cyclization was taken as sum of these latter two products. In addition to that value, base exchange or transglycosidation was calculated from the expected dinucleotide analog formed in the presence of the corresponding free base, e.g., AcPyrAD from AcPyr and NAD.
# (§2) The kinetic parameters were calculated from initial rates obtained from replicates via best-fitting analysis using the following Equation 1 for CD38 and Aplysia cyclase, or Equation 2 for hSARM1 SAM-TIR, or Equation 3 for hSARM1 full length(Equation 1) V =Vmax[S]/Km+[S] […] In that case, the resulting single curves were fit to Equation 3 as above to evaluate any competition between NMN and the substrate used (see Table 1).
# hSARM1 full length [2] = target: T2, hSARM1 full length (Homo sapiens, UniProt Q6SZW1); assay: NAD(P)ase activity by HPLC (kinetics, substrates, metal ions); type: biochemical; conditions: hSARM1; for use as substrate (consumption rate): dinucleotide 250 μM, 25°C, 2–6 h; for effect of metal ion on activity: metal ions 1 mM
# T2 construct: Human recombinant SARM1 full length proteins (wild-type and E642A mutant); made in house
# T2 sequence (Q6SZW1 28-724): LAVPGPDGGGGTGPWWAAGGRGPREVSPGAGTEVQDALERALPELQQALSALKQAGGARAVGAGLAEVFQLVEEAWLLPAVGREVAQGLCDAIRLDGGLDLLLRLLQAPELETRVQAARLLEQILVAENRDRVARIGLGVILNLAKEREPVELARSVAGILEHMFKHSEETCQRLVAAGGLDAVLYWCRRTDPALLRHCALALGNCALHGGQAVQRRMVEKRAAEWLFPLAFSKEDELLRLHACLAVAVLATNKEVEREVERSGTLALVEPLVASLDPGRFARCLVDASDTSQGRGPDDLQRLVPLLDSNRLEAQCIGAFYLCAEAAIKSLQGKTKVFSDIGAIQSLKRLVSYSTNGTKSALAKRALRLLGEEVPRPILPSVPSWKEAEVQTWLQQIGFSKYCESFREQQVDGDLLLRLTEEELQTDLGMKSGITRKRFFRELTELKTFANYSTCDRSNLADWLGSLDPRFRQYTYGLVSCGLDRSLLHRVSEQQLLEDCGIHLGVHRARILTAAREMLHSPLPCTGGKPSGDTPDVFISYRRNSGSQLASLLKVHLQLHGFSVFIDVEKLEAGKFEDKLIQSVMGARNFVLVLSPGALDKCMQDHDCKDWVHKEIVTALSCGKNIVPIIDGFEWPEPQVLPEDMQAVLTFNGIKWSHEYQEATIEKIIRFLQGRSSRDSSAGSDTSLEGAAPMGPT
# Experimental: as §1, §2
# hCD38 [3] = target: T3, hCD38 (Homo sapiens, UniProt P28907); assay: as above; type: biochemical; conditions: for use as substrate (consumption rate): dinucleotide 250 μM, 2–6 h; for effect of metal ion on activity: metal ions 1 mM
# T3 construct: a soluble fragment Val43-Ile300 with 6x-His tag at C terminus; 6xHis (C); purchased R&D Systems
# T3 sequence (P28907 43-300): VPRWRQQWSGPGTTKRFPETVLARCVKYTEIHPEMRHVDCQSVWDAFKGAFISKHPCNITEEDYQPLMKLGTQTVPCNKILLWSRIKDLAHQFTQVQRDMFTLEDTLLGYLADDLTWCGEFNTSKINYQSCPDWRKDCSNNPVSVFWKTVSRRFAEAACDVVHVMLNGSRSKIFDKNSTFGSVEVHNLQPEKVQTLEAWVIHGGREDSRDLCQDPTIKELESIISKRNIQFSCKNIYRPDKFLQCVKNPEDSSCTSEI
# Experimental: as §1, §2
# hSARM1 full length [4] = target: T2, hSARM1 full length; assay: Base exchange reactions at neutral pH (HPLC); type: biochemical; conditions: for increase of all hSARM1 activities by trigger (plateau): hSARM1 full length, NMN 0.2 mM or VMN 0.05 mM, NAD or NADP 250 μM with or without bases
# Experimental: (§3) Multiple time stops from individual assays as above were analyzed for linearity, then extents of hydrolysis (white bars), cyclization (red bars), or base exchange (black bars) were calculated from each corresponding product as shown in Figure 1B and STAR methods. […] See also Figures S3–S5, and Table S1
# as §1
# hCD38 [5] = target: T3, hCD38; assay: Base exchange reactions at neutral pH (HPLC); type: biochemical; conditions: NADP […] alone or + AcPyr 2 mM / Vacor 0.5 mM / Na 2 mM
# Experimental: as §3, §1
# [6] = hSARM1 full length +NMN 0.2 mM, NAD […]
# [7] = hSARM1 full length +NMN 0.2 mM, NADP […]
# [8] = hSARM1 full length +VMN 0.05 mM, NAD […]
# [9] = hSARM1 full length +VMN 0.05 mM, NADP […]
compound,measurement,setting,value
NC(=O)C1=CN([C@@H]2O[C@H](COP(=O)(O)OP(=O)(O)OC[C@H]3O[C@@H](n4cnc5c(N)ncnc54)[C@H](O)[C@@H]3O)[C@@H](O)[C@H]2O)C=CC1 [NADH],use as substrate (consumption rate),[1],negligible usage
same,use as substrate (consumption rate),hSARM1 full length [2],negligible usage
same,use as substrate (consumption rate),"hCD38 [3]; hCD38, 25°C",negligible usage
NC(=O)C1=CN([C@@H]2O[C@H](COP(=O)(O)OP(=O)(O)OC[C@H]3O[C@@H](n4cnc5c(N)ncnc54)[C@H](OP(=O)(O)O)[C@@H]3O)[C@@H](O)[C@H]2O)C=CC1 [NADPH],use as substrate (consumption rate),[1],negligible usage
same,use as substrate (consumption rate),hSARM1 full length [2],negligible usage
same,use as substrate (consumption rate),"hCD38 [3]; hCD38, 25°C",negligible usage
"NC(=O)c1ccc[n+]([C@@H]2O[C@H](COP(=O)([O-])OP(=O)(O)OC[C@H]3O[C@@H](n4cnc5c(=O)[nH]c(N)nc54)[C@H](O)[C@@H]3O)[C@@H](O)[C@H]2O)c1 [NGD, nicotinamide guanine dinucleotide]","cyclization, share of total substrate consumption",hCD38 [3]; CD38,~80%
"NC(=O)c1ccc[n+]([C@@H]2O[C@H](COP(=O)([O-])O)[C@@H](O)[C@H]2O)c1 [NMN, nicotinamide mononucleotide]","cyclization, share of products",hSARM1 full length [4]; [6],9.51%
same,"hydrolysis, share of products",hSARM1 full length [4]; [6],90.49%
same,rate,"hSARM1 full length [4]; hSARM1 full length +NMN 0.2 mM, NAD […] alone or + free base",187.9 ±26.9 mU/mg
same,rate (relative fold),"hSARM1 full length [4]; hSARM1 full length +NMN 0.2 mM, NAD […], relative to NAD alone without trigger",8.61±1.23 fold
same,"cyclization, share of products",hSARM1 full length [4]; [7],~ 0.05%
same,"hydrolysis, share of products",hSARM1 full length [4]; [7],99.95%
same,rate,"hSARM1 full length [4]; hSARM1 full length +NMN 0.2 mM, NADP […] alone or + free base",117.3 ±4.72 mU/mg
same,rate (relative fold),"hSARM1 full length [4]; hSARM1 full length +NMN 0.2 mM, NADP […], relative to NADP alone without trigger",7.98 ±0.321 fold
same,increase of all hSARM1 activities by trigger (plateau),hSARM1 full length [4],8- to 10 fold
"Nc1ncnc2c1ncn2[C@@H]1O[C@H](COP(=O)(O)OP(=O)(O)OC[C@H]2O[C@@H]([n+]3cccc(C(=O)O)c3)[C@H](O)[C@@H]2O)[C@@H](O)[C@H]1O [NaAD, nicotinic acid adenine dinucleotide]",use as substrate (consumption rate),[1],negligible usage
same,use as substrate (consumption rate),hSARM1 full length [2],negligible usage
same,use as substrate (consumption rate),"hCD38 [3]; hCD38, 25°C",negligible usage
"Nc1ncnc2c1ncn2[C@@H]1O[C@H](COP(=O)(O)OP(=O)([O-])OC[C@H]2O[C@@H]([n+]3cccc(CNC(=O)Nc4ccc([N+](=O)[O-])cc4)c3)[C@H](O)[C@@H]2O)[C@@H](O)[C@H]1O [VAD, vacor adenine dinucleotide]",use as substrate (consumption rate),[1],no activity
same,use as substrate (consumption rate),hSARM1 full length [2],no activity
same,use as substrate (consumption rate),"hCD38 [3]; hCD38, 25°C",no activity
"O=C(NCc1ccc[n+]([C@@H]2O[C@H](COP(=O)(O)O)[C@@H](O)[C@H]2O)c1)Nc1ccc([N+](=O)[O-])cc1 [VMN, vacor mononucleotide]","cyclization, share of products",hSARM1 full length [4]; [8],8.79%
same,"hydrolysis, share of products",hSARM1 full length [4]; [8],91.21%
same,rate,"hSARM1 full length [4]; hSARM1 full length +VMN 0.05 mM, NAD […] alone or + free base",210.1 ±14.4 mU/mg
same,rate (relative fold),"hSARM1 full length [4]; hSARM1 full length +VMN 0.05 mM, NAD […], relative to NAD alone without trigger",9.63 ±0.660 fold
same,"cyclization, share of products",hSARM1 full length [4]; [9],0.64%
same,"hydrolysis, share of products",hSARM1 full length [4]; [9],99.36%
same,rate,"hSARM1 full length [4]; hSARM1 full length +VMN 0.05 mM, NADP […] alone or + free base",138.3 ±1.72 mU/mg
same,rate (relative fold),"hSARM1 full length [4]; hSARM1 full length +VMN 0.05 mM, NADP […], relative to NADP alone without trigger",9.41 ±0.117 fold
same,increase of all hSARM1 activities by trigger (plateau),hSARM1 full length [4],8- to 10 fold
[Cu+2] [copper],effect of metal ion on activity,[1],clear inhibition
same,effect of metal ion on activity,hSARM1 full length [2],clear inhibition
same,effect of metal ion on activity,hCD38 [3]; hCD38,clear inhibition
[Mg] [magnesium],effect of metal ion on activity,[1],no effect
same,effect of metal ion on activity,hSARM1 full length [2],no effect
same,effect of metal ion on activity,hCD38 [3]; hCD38,no effect
[Zn+2] [zinc],effect of metal ion on activity,[1],clear inhibition
same,effect of metal ion on activity,hSARM1 full length [2],clear inhibition
same,effect of metal ion on activity,hCD38 [3]; hCD38,clear inhibition
"NC(=O)c1ccc[n+]([C@H]2O[C@H](COP(=O)([O-])OP(=O)(O)OC[C@H]3O[C@@H](n4cnc5c(N)ncnc54)[C@H](O)[C@@H]3O)[C@@H](O)[C@H]2O)c1 [αNAD, alpha-NAD]",use as substrate (consumption rate),[1],no activity
same,use as substrate (consumption rate),hSARM1 full length [2],no activity
same,use as substrate (consumption rate),"hCD38 [3]; hCD38, 25°C",no activity
nicotinamide adenine dinucleotide phosphate [NADP],Km,[1]; substrate as labelled,384 ± 0.17 µM
same,Vmax,[1]; substrate as labelled,"20,043 ± 724 mU/mg"
same,Vmax,"hCD38 [3]; hCD38, substrate as labelled",4376 ± 24.1 mU/mg
same,Km,"hCD38 [3]; hCD38, substrate as labelled, 25°C, pH 7.5",11.7 ± 0.88 µM
same,rate,hCD38 [5],3521 ±605 mU/mg
nicotinic acid adenine dinucleotide phosphate [NaADP],use as substrate (consumption rate),[1],negligible usage
same,use as substrate (consumption rate),hSARM1 full length [2],negligible usage
same,use as substrate (consumption rate),"hCD38 [3]; hCD38, 25°C",negligible usage
